Earlier results on seven molecules are cited in US20060127486A1, “Ceramic structures for prevention of drug diversion” (priority 2004, published 2006).

Like-named read-outs stand apart in the source and are kept apart here.

Details of this series: reference not given here.
Where [1] appears, read: equianalgesic doses of various opioids, given as an aid to exact dose determination.

As for `COc1ccc2c3c1O[C@H]1[C@@H](O)C=C[C@H]4[C@@H](C2)N(C)CC[C@@]341` [codeine], the equianalgesic dose under setting [1] is given as 90.0 mg. Consider `COc1ccc2c3c1O[C@H]1C(=O)CC[C@H]4[C@@H](C2)N(C)CC[C@]314` [hydrocodone], for which the equianalgesic dose under setting [1] is given as 15.0 mg. As to `CN1CC[C@]23CCCC[C@H]2[C@H]1Cc1ccc(O)cc13` [levorphanol], the equianalgesic dose under setting [1] was 1.8 mg. Consider `CCOC(=O)C1(c2ccccc2)CCN(C)CC1` [meperidine], for which, for the setting “in vivo”, the equianalgesic dose was 135.0 mg. Take `CCC(=O)C(CC(C)N(C)C)(c1ccccc1)c1ccccc1` (stereo not shown) [methadone]: under setting [1], the equianalgesic dose is 9.0 mg. With `CN1CC[C@]23c4c5ccc(O)c4O[C@H]2[C@@H](O)C=C[C@H]3[C@H]1C5` [morphine], under “in vivo”, the equianalgesic dose is 27.0 mg. Turning to `COc1ccc2c3c1O[C@H]1C(=O)CC[C@@]4(O)[C@@H](C2)N(C)CC[C@]314` [oxycodone], the equianalgesic dose under setting [1] is given as 13.5 mg.
